In patent US9795644B2, “Reduction of in vitro genotoxicity of pollen extracts by removal of flavonoids” (STALLERGENES, priority 2009, dated 2017):

Key:
[1] = incubation at 37° C. under MLA/TK conditions, deglycosylation followed by reverse phase HPLC; format: physicochemical; settings: 24 h at 37° C., in presence of grass pollen proteins; from peak areas
Experimental: Grass pollen flavonoids were first identified by reverse phase HPLC, according to their hydrophobicity. Reverse phase HPLC was performed on a Atlantis dC18 column, 4.6×250 mm, 5 μm, Waters, Milford, Mass., USA; with a gradient elution: 0.1% formic acid qsp water to 0.1% formic acid qsp acetonitrile in 30 min; flow rate: 1 mL/min; run time: 45 min; detection wavelength: 354 or 254 nm; injection volume 50 μL. Importantly, grass pollen extracts were diluted 5 times in methanol before analysis in order to solubilize both flavonoid glycosides and flavonoid aglycones, the latter being hardly soluble in water.
Analysis of samples was performed using the HPLC method described above for the detection of flavonoids.
As (a) the sum of all peaks areas was rather well conserved and (b) the decrease of a flavonoid diglucoside-corresponding peak was related to the increase or appearance of flavonoid monoglycoside and/or aglycone-corresponding peak(s), it could be considered that the ratio between the two peaks areas is equivalent to the molar ratio of the corresponding flavonoids. On this basis, the decrease in quercetin-diglucoside leaded to an equal increase in molecules of quercetin-monoglucoside and in molecules of quercetin aglycone.

[2] = other in vitro genotoxic tests; cited from earlier work
[3] = test system: mouse lymphoma thymidine kinase gene mutation; experiment: MLA/TK test of quercetin by Meltz and MacGregor (4-h short term protocol), modelled by equation (2); format: cell-based; settings: quercetin 0.83-0.86 μg/mL; from data of Meltz and MacGregor
Experimental: To our knowledge, quercetin is the only flavonoid aglycone that was studied in the MLA/TK test, namely in a work by Meltz and MacGregor who used a 4-h short term protocol (Mutat. Res. 1981; 88: 317-324).
The induction ratios that should result from those amounts was deduced from the data of Meltz and MacGregor. Such deduced induction ratios were then compared to the induction ratio actually observed.
The lowest concentration of quercetin tested by Meltz and MacGregor was 10 μg/mL. Therefore, to determine the ratio that should be obtained with the lowest concentration of 0.864 μg/mL or below, the relationship between (a) the concentrations of quercetin tested by Meltz and MacGregor and (b) the corresponding induction ratios they observed was mathematically modelled. Since those ratios started reaching a plateau at the first concentration tested, we choose to use a logarithmic function for such a modelization. Given that the ratio is necessarily of 1 for 0 μg/mL of mutagen (control), the logarithmic function will be of the form: y=a·ln(x+1)+1 (1)
Using the ratios obtained by Meltz and MacGregor for 10, 20 and 30 μg/mL of quercetin allows a mathematical modelization by the following equation with an excellent correlation coefficient (r=0.99): y=3.0822×ln(x+1)+1 (2).

O=c1c(O[C@@H]2O[C@H](CO)[C@@H](O)[C@H](O)[C@H]2O)c(-c2ccc(O[C@@H]3O[C@H](CO)[C@@H](O)[C@H](O)[C@H]3O)c(O)c2)oc2cc(O)cc(O)c12 [quercetin-diglucoside, quercetin-3,4′-diglucoside]
share deglycosylated into quercetin (aglycone) [1]: ~20%

O=c1c(O)c(-c2ccc(O)c(O)c2)oc2cc(O)cc(O)c12 [quercetin]
genotoxicity rank among flavonoid aglycones [2]: the most genotoxic flavonoid aglycone | induction ratio interpolated with equation (2) [3]: 2.9
